# Where a name gives a salt, the structure may show the parent alone.
# System: Human Umbilical Vein Endothelial Cells (HUVECs)
# Assay: Inhibition against sandwich tube formation by vascular endothelial cells in response to stimulation by VEGF
# Type: cell-based
# Details: HUVEC in collagen gel sandwich, stimulation by VEGF (25 ng/ml VEGF and 10 ng/ml EGF), 4th day, total tube length, read-out: IC50 (concentration required for 50% inhibition of tube formation)
# Description: Inhibition Against Sandwich Tube Formation by Vascular Endothelial Cells in Response to Stimulation by Angiogenic Factor
# Human Umbilical Vein Endothelial Cells (HUVECS) were isolated by the same method as in Pharmacological Test Example 1, and were cultured in a 5% CO2 incubator (37° C.) using EGM-2 medium (purchased from Clonetics Corp.) until the cells reached confluency.
# An ice-cooled mixture of collagen: 5× RPMI 1640: reconstitution buffer (all purchased from Nitta Gelatin, Inc.) at 7:2:1 was dispensed at 0.4 ml into each well of a 24-well plate, and then stationed for 40 minutes in a 5% CO2 incubator (37° C.) for gelling. The HUVECs were recovered using trypsin-EDTA and then suspended in human endothelial serum free medium (SFM, purchased from GIBCO BRL) containing added angiogenic factors [20 ng/ml FGF2 (purchased from GIBCO BRL) and 10 ng/ml EGF (purchased from GIBCO BRL), or 25 ng/ml VEGF (purchased from Wako Pure Chemical Industries Co., Ltd.) and 10 ng/ml EGF, or 30 ng/ml HGF (purchased from R&D Co.) and 10 ng/ml EGF], and the cell suspension was added at 0.4 ml to each well (with the cell counts differing slightly according to the HUVEC lot), and cultured overnight in a 5% CO2 incubator (37° C.). On the following day, the medium on the upper layer was aspirated off, and then 0.4 ml of an ice-cooled mixture of collagen: 5× RPMI 1640: reconstitution buffer (all purchased from Nitta Gelatin, Inc.) at 7:2:1 was superposed into each well prior to stationing for 4 hours in a 5% CO2 incubator (37° C.) for gelling. After adding 1.5 ml of an SFM solution containing each of the aforementioned angiogenic factors and a diluted test substance onto the upper layer, culturing was performed in a 5% CO2 incubator (37° C.). Upon aspirating off the culture supernatant in each well on the 4th day after addition of the test substance, 0.4 ml of a 3.3 mg/ml MTT solution dissolved in PBS (purchased from Sigma Corp.) was added to each well and culturing was performed for approximately 2 hours in a 5% CO2 incubator (37° C.). The tubes formed in the collagen gel of each well were stained by the MTT, the tube images were loaded into a computer (Macintosh), and the total length of the tubes was determined by image analysis software “MacScope” (purchased from Mitani Corp.). The ratio of the total length of the tubes formed in the well containing the test substance with respect to the total length of the tubes formed in the well containing no test substance was expressed as a percentage, and the concentration of each test substance required for 50% inhibition of tube formation (IC50) was determined from the ratio value.
row,SMILES,IC50 [nM]
1,"COCCOc1cc2nccc(Oc3ccc(NC(=O)Nc4nccs4)cc3)c2cc1C#N [Example 12, N-(4-(6-cyano-7-(2-methoxyethoxy)-4-quinolyl)oxyphenyl)-N′-(1,3-thiazol-2-yl)urea]",44
2,"CCN(CC)CCCOc1cc2nccc(Oc3ccc(NC(=O)NC4CC4)c(F)c3)c2cc1C(N)=O [Example 372, 4-(4-(Cyclopropylaminocarbonyl)amino-3-fluorophenoxy)-7-(3-(N,N-diethylamino)propoxy)-6-quinolinecarboxamide]",44
3,"COc1cc2nccc(Oc3ccc(NC(=O)NC4CC4)c(Cl)c3)c2cc1C(=O)NC[C@H]1CCCO1 [Example 450, N6-((2R)Tetrahydro-2-furanylmethyl)-4-(3-chloro-4-(((cyclopropylamino)carbonyl)amino)phenoxy)-7-methoxy-6-quinolinecarboxamide]",4.5
4,"COc1cc2nccc(Oc3ccc(NC(=O)NC4CC4)c(Cl)c3)c2cc1C(=O)Nc1cccnc1 [Example 408, N6-(3-Pyridyl)-4-(3-chloro-4-(((cyclopropylamino)carbonyl)amino)phenoxy)-7-methoxy-6-quinolinecarboxamide]",39
5,"CCCNC(=O)c1cc2c(Oc3ccc(NC(=O)NC4CC4)c(Cl)c3)ccnc2cc1OC [Example 444, N6-Propyl-4-(3-chloro-4-(((cyclopropylamino)carbonyl)amino)phenoxy)-7-methoxy-6-quinolinecarboxamide]",5.5
6,"CCNC(=O)n1ccc2cc(Oc3ccnc4cc(OCCCN5CCCC5)c(C#N)cc34)ccc21 [Example 299, 5-[6-Cyano-7-(3-(pyrrolidin-1-yl)propoxy)quinolin-4-yloxy]indole-1-carboxylic acid ethylamide]",1
7,"CN1CCC(CC(=O)Nc2cc(Oc3ccc4c(ccn4C(=O)Nc4ccccc4)c3)ccn2)CC1 [Example 204, N1-Phenyl-5-[(2-{[2-(1-methyl-4-piperidyl)acetyl]amino}-4-pyridyl)oxy]-1H-1-indolecarboxamide]",0.9
8,"COc1cc(Nc2cc(Oc3ccc(NC(=O)Nc4ccccc4)cc3)ncn2)cc(OC)c1OC [Example 578, N-Phenyl-N′-(4-(6-(3,4,5-trimethoxyphenylamino)pyrimidin-4-yloxy)phenyl)urea hydrochloride]",13
9,"COC(=O)CCCOc1cc2nccc(Oc3ccc(NC(=O)Nc4ccc(OC)cc4)cc3)c2cc1C#N [Example 70, N-(4-(6-Cyano-7-(3-methoxycarbonylpropoxy)-4-quinolyl)oxyphenyl)-N′-(4-methoxyphenyl)urea]",58
10,"CCOCCCNC(=O)n1ccc2cc(Oc3ccnc4cc(OC)c(C(N)=O)cc34)ccc21 [Example 326, 6-Carbamoyl-4-[1-(3-ethoxypropylcarbamoyl)1H-indol-5-yloxy]-7-methoxyquinoline]",1
11,"C#CCNC(=O)c1cc2c(Oc3ccc(NC(=O)NC4CC4)c(Cl)c3)ccnc2cc1OC [Example 445, N6-Propargyl-4-(3-chloro-4-(((cyclopropylamino)carbonyl)amino)phenoxy)-7-methoxy-6-quinolinecarboxamide]",6.2
12,"CCN(CC)CCCOc1cc2nccc(Oc3ccc(NC(=O)NC4CC4)c(Cl)c3)c2cc1C#N [Example 419, N-(2-Chloro-4-((6-cyano-7-(3-(diethylamino)propoxy)-4-quinolyl)oxy)phenyl)-N′-cyclopropylurea]",10
13,"CN1CCC(C(=O)Nc2cc(Oc3ccc(NC(=O)Nc4ccc(F)cc4)c(Cl)c3)ccn2)CC1 [Example 202, N4-[4-(3-Chloro-4-{[(4-fluoroanilino)carbonyl]amino}phenoxy)-2-pyridyl]-1-methyl-4-piperidinecarboxamide]",15
14,"CCN(CC)CC(O)COc1cc2nccc(Oc3ccc(NC(=O)Nc4ccc(F)cc4)c(F)c3)c2cc1C#N (centres unmarked) [Example 493, N-{4-[6-Cyano-7-(3-diethylamino-2-hydroxypropoxy)quinolin-4-yloxy]-2-fluorophenyl}-N′-(4-fluorophenyl)urea]",9
